In PMC5295395, “Inhibition of PlexA1-mediated brain tumor growth and tumor-associated angiogenesis using a transmembrane domain targeting peptide” (Oncotarget, 2016):

Tests used:
[1] = system: HUVEC cells; assay: pseudo-tube formation assay, HUVEC on matrigel; assay type: cell-based, human; settings: 10^−7 M, 5 h, vs vehicle; p = 0.0087
Text: We observed PlexA1 positive blood vessels in the tissue array of GBM samples (Figure 5A). […] To address this possibility we first used a transgenic zebra-fish model tg(kdrl:eGFP) highlighting the endothelial cells. This allowed us to assess the angiogenic activities in vivo by analyzing formation of intersegmental vessels (ISVs) after morpholino-based knockdown of the target.
Figure 5 MTP-PlexA1 inhibits developmental and tumor-specific PlexA1 pro-angiogenic role (A) Microphotographs illustrating the expression of PlexA1 in vascular-like structures in human glioma tissues. (Scale bar: 40 μm). (B) Morpholino-based PlexA1 knockdown in Zebrafish tg(kdrl:eGFP) line. Representative images of control, Plexin-A1 mismatch and Pexin-A1 knockdown embryos (plxna1MO) are shown 28 hours post fertilization (28hpf). […] (E) Live-monitoring of VEGF-induced HUVEC cell migration assay using the XCelligence system (transwell assay). (F) Microphotographs illustrating the expression of PlexA1 in blood vessels of the chick chorioallontoic membrane (upper left picture). Microphotographs (middle and lower left pictures) and camera lucida drawing (middle and lower right pictures) showing representative fields of observation after 24 h incubation with VEGF (100 ng/ml, +vehicle) or VEGF + MTP-PlexA1 (10^−7 M). The number of VEGF-induced new blood vessels is shown in the graph. […]

[2] = system: NRP1-PlexA1 complex; assay: co-immunoprecipitation of NRP1 with PlexA1 in U373MG cells; assay type: cell-based, human; settings: 10^−7 M peptide 1 h
Experimental: (C) Rac-1 activation assay in resting condition and after Sema3A-induced Rac-1 activation in U373 MG cells. (D) Western blot analysis of phosphorylated Akt, total Akt and tubulin in U373MG cells treated with the vehicle (LDS 72 μM), Sema3A (100 ng/ml) or Sema3A + MTP-PlexA1 (10^−7 M). The lower panel is showing the quantification of the p-Akt/Akt ratio in the different conditions. (E) MTP-PlexA1 decreases VEGFR-2 phosphorylation induced by VEGF (100 ng/ml) in HUVEC cells. […]
in 20 mM sodium acetate (pH 4.5) at a flow rate of 5 μl/ min 10–7 M of MTP-PlexA1 or Vehicle (LDS, 72 µM) during until desired surface densities, measured in response 1 h. Stimulation was done with 100ng/ml Semaphorin 3A units, were reached. […] First antibodies (Rabbit anti-phospho-the elution buffer containing detergent removed non- akt, Rabbit anti-akt, Cell Signaling #4060 and #9272 biotinylated peptides rendering the chip ready for analysis respectively) and mouse anti-tubulin α (Cell Signaling with monomeric biot-MTP-PlexA1. Blank surfaces were #2144) were incubated overnight at 4°C (+ anti-NRP1, used for background corrections. Injections of 30 µl anti-PlexA4 Abcam). […] Images of the immuno-blots cells per well in a 6-well plate and serum starved overnight. were acquired and analyzed thanks to the GENE GNOME Before protein extraction, the cells were treated either with apparatus (Syngene Bio Imaging, UK).

[3] = system: U373MG tumors in nude mice; assay: heterotopic U373MG xenograft in nude mice; assay type: in vivo, human cells in mouse
Experimental: Supplementary Figure S6: The anti-tumor effect of MTP-PlxA1 was verified in U373MG human GBM line. […]
(Stable Disease) and 62.5% PR (Partial Response).

[4] = system: U118MG-Luc cells; assay: MTT proliferation assay, U118MG-Luc; assay type: cell-based, human; settings: 24 h culture
[5] = U373MG, waterfall best response, RECIST criteria

TLPAIVGIGGGGGLLLLVIVAVLIAYKRK [MTP-PlexA1, synthetic transmembrane peptide mimicking the TMD of PlexA1]
change of tube-like structures (HUVEC on matrigel) [1]: −68% | change of NRP1 co-immunoprecipitated with PlexA1, Sema3A-induced ([2]; Sema3A 100 ng/ml 30 min): −24.6% | reduction of NRP1 co-immunoprecipitated with PlexA1, VEGF ([2]; VEGF 100 ng/ml 10 min): 39.4% | change of endpoint tumor weight ([3]; U373MG flank graft, daily i.p., 10–7 M, p = 0.0044): −44% | mice responding to the treatment [3, 5]: 100% | mice with PR (Partial Response) [3, 5]: 62.5% | mice with SD (Stable Disease) [3, 5]: 37.5% | proliferation of U118MG-Luc cells [4]: reduced proliferation in a dose dependent manner
